The subject of data set [1] is MPanc-96 orthotopic tumors. Nature of the data set: Tumor growth and metastasis in scid mice, MPanc-96 orthotopic. The data set is classed as in vivo. As to conditions: for liver metastasis, difference versus control / lung metastasis, difference versus control / tumor burden, difference versus control / lung metastasis, mean / liver metastasis, mean / tumor burden (primary tumor volume by bioluminescence), mean: MPanc-96; for lung metastasis, mean: control mean=5.9×10^7; for liver metastasis, mean: control mean=9.4×10^8; for tumor burden (primary tumor volume by bioluminescence), mean: end of six weeks, cromolyn 5 mg per kg daily i.p., gemcitabine 125 mg per kg bi-weekly i.p., control mean=1.1×10^10. The method, then:
FIGS. 5A-5F show the effect of cromolyn on MPanc-96 tumor growth and metastasis in vivo. MPanc-96 cells stably expressing the firefly luciferase gene were injected orthotopically into 4-week-old male CB 17 scid mice. […] Mice were divided into four groups of five mice each with an equivalent mean tumor size between groups. […] One group was treated with water (control), one group received gemcitabine bi-weekly (125 mg per kg body weight bi-weekly by intraperitoneal injection), one group was administered cromolyn daily (5 mg per kg body weight daily by intraperitoneal injection), and the final group was given the combination of cromolyn and gemcitabine. All groups were treated for six weeks. Bioluminescent imaging was done weekly to assess tumor growth. […] Means and 95% confidence intervals from two independent experiments are shown (n=20). Two-tailed two-sample (unpaired) Student's t-tests were used to determine P values. The anti-tumorigenic capability of the drug cromolyn was assessed in 4-week-old male CB 17 scid mice (n=20) carrying orthopic tumors of BxPC-3, MPanc96, and Panc-1 cells stably expressing a Lenti-luc reporter. All mouse experiments were reviewed and approved by the Institutional Animal Care and Use Committee of UT MD Anderson Cancer Center. All mice were maintained in a sterile environment. Cages, bedding, food, and water were all autoclaved. All mice were maintained on a daily 12-hour light/12-hour dark cycle, according to the institutional animal welfare guidelines. BxPC-3, MPanc96, and Panc-1 cells carrying the Lenti-luc reporter gene were grown to 80% confluence, harvested by incubation with trypsin-EDTA, washed twice in PBS, and resuspended to a final concentration of 4.0×10^6 cells/mL. Each mouse (n=20 mice per cell line) was injected (into the pancreas) with cell suspensions (50 μL). […] This initial tumor volume was used to divide the mice into four groups of five mice each, such that the mean tumor size was equal between groups (FIGS. 4A, 5A, and 6A). To allow enough time to observe differences among treatment groups, the mice were followed for the next 5 weeks. One group of mice was then treated biweekly with a sub-maximal concentration of gemcitabine (125 mg per kg body weight by i.p. injection). A second group was treated with a daily injection of cromolyn (5 mg per kg body weight by i.p. injection). A third group was treated with both bi-weekly gemcitabine and daily cromolyn. The control group was treated daily with vehicle. Treatments were continued for 5 weeks, and the effects on the tumor burden and metastasis were analyzed by weekly bioluminescence imaging (FIGS. 4B, 5B, and 6B). At the end of the experiment the mice were anesthetized with 1.5% isofluorane/air mixture and killed by cervical dislocation. […] Before imaging, mice were placed in an acrylic chamber, anesthetized with 1.5% isofluorane/air mixture, and injected i.p. with 15 mg/mL of luciferin potassium salt in PBS at a dose of 150 mg per kg body weight. A digital grey scale image of each mouse was acquired, followed by acquisition and overlay of a pseudocolor image representing the spatial distribution of detected photons emerging from active luciferase within the mouse. Tumor volume was quantified as the sum of all detected photons within the region of the tumor per second. At the end of experiment, the mice were killed, and tumors were surgically removed and weighed. After the primary tumors were removed, cancer cell dissemination and metastasis was visualized using IVIS imaging, and metastatic colonies were counted. Subsequently, tissues were fixed with formaldehyde, and histology was used to verify the accuracy of the bioluminescence data.

In data set [2] the test system is Panc-1 orthotopic tumors. Description: Tumor growth and metastasis in scid mice, Panc-1 orthotopic. The data set is classed as in vivo. The settings on record: for effect on liver or lung metastasis: Panc-1. The procedure: FIGS. 6A-6F show the effect of cromolyn on Panc-1 tumor growth and metastasis in vivo. Panc-1 cells stably expressing the firefly luciferase gene were injected orthotopically into 4-week-old male CB 17 scid mice. […] Mice were divided into four groups of five mice each with an equivalent mean tumor size between groups. […] One group was treated with water (control), one group received gemcitabine bi-weekly (125 mg per kg body weight bi-weekly by intraperitoneal injection), one group was administered cromolyn daily (5 mg per kg body weight daily by intraperitoneal injection), and the final group was given the combination of cromolyn and gemcitabine. All groups were treated for six weeks. Bioluminescent imaging was done weekly to assess tumor growth. […] Means and 95% confidence intervals from two independent experiments are shown (n=20). Two-tailed two-sample (unpaired) Student's t-tests were used to determine P values.
The anti-tumorigenic capability of the drug cromolyn was assessed in 4-week-old male CB 17 scid mice (n=20) carrying orthopic tumors of BxPC-3, MPanc96, and Panc-1 cells stably expressing a Lenti-luc reporter. All mouse experiments were reviewed and approved by the Institutional Animal Care and Use Committee of UT MD Anderson Cancer Center. All mice were maintained in a sterile environment. Cages, bedding, food, and water were all autoclaved. All mice were maintained on a daily 12-hour light/12-hour dark cycle, according to the institutional animal welfare guidelines.
BxPC-3, MPanc96, and Panc-1 cells carrying the Lenti-luc reporter gene were grown to 80% confluence, harvested by incubation with trypsin-EDTA, washed twice in PBS, and resuspended to a final concentration of 4.0×10^6 cells/mL. Each mouse (n=20 mice per cell line) was injected (into the pancreas) with cell suspensions (50 μL). Bioluminescent imaging to determine tumor volume was performed 1 week after injection because the tumors became established within this amount of time. This initial tumor volume was used to divide the mice into four groups of five mice each, such that the mean tumor size was equal between groups (FIGS. 4A, 5A, and 6A). To allow enough time to observe differences among treatment groups, the mice were followed for the next 5 weeks. One group of mice was then treated biweekly with a sub-maximal concentration of gemcitabine (125 mg per kg body weight by i.p. injection). A second group was treated with a daily injection of cromolyn (5 mg per kg body weight by i.p. injection). A third group was treated with both bi-weekly gemcitabine and daily cromolyn. The control group was treated daily with vehicle. Treatments were continued for 5 weeks, and the effects on the tumor burden and metastasis were analyzed by weekly bioluminescence imaging (FIGS. 4B, 5B, and 6B). At the end of the experiment the mice were anesthetized with 1.5% isofluorane/air mixture and killed by cervical dislocation.
Bioluminescence imaging was conducted using a cryogenically cooled IVIS 100 imaging system coupled to a data acquisition computer running Living Image software (Xenogen Corp., Alameda, Calif.). Before imaging, mice were placed in an acrylic chamber, anesthetized with 1.5% isofluorane/air mixture, and injected i.p. with 15 mg/mL of luciferin potassium salt in PBS at a dose of 150 mg per kg body weight. A digital grey scale image of each mouse was acquired, followed by acquisition and overlay of a pseudocolor image representing the spatial distribution of detected photons emerging from active luciferase within the mouse. Tumor volume was quantified as the sum of all detected photons within the region of the tumor per second. At the end of experiment, the mice were killed, and tumors were surgically removed and weighed. After the primary tumors were removed, cancer cell dissemination and metastasis was visualized using IVIS imaging, and metastatic colonies were counted. […]

Molecules are shown by their SMILES.

Take `O=C(O)c1cc(=O)c2c(OCC(O)COc3cccc4oc(C(=O)O)cc(=O)c34)cccc2o1` [cromolyn, disodium 1,3-bis[(2′-carboxylatochromon-5′-yl)oxy]-2-hydroxypropane]: in data set [1], the “liver metastasis, difference versus control” value is 7.2×10^8 photons/sec; the “lung metastasis, difference versus control” value is listed as 5.6×10^7 photons/sec; the “tumor burden, difference versus control” value was 6.2×10^9 photons/sec; the “lung metastasis, mean” value is listed as 3.2×10^6 photons/sec. In data set [1], the “liver metastasis, mean” value is 2.2×10^8 photons/sec and the “tumor burden (primary tumor volume by bioluminescence), mean” value is reported as 4.8×10^9 photons/sec. In addition, the “effect on body weight” value in data set [1] (MPanc-96 model, up to 6 weeks) was “no effect on body weight”. In data set [2], the “effect on liver or lung metastasis” value is given as “neither cromolyn nor gemcitabine nor the combination reduced liver or lung metastasis”. Further, the “effect on body weight” value in data set [2] (Panc-1 model, up to 6 weeks) is “no effect on body weight”. Also, the “tumor development in Panc-1 model” value in data set [2] (cromolyn 5 mg per kg daily i.p., alone or with gemcitabine) was “did not reduce tumor development or increase the effectiveness of gemcitabine”.

As to `Nc1ccn([C@@H]2O[C@H](CO)[C@@H](O)C2(F)F)c(=O)n1` [gemcitabine], in data set [1], the “liver metastasis, difference versus control” value was 8.1×10^8 photons/sec; the “lung metastasis, difference versus control” value is recorded as 5.4×10^7 photons/sec; the “tumor burden, difference versus control” value is recorded as 6.9×10^9 photons/sec; the “lung metastasis, mean” value is listed as 5.0×10^6 photons/sec. In data set [1], the “liver metastasis, mean” value is recorded as 1.2×10^8 photons/sec and the “tumor burden (primary tumor volume by bioluminescence), mean” value is listed as 4.1×10^9 photons/sec. Besides, the “effect on liver or lung metastasis” value in data set [2] is reported as “neither cromolyn nor gemcitabine nor the combination reduced liver or lung metastasis”. Further, the “body weight, difference versus control” value in data set [2] (Panc-1 model) is listed as 4.8 g. The “body weight at the end of the experiment, mean” value in data set [2] (Panc-1 model, control mean=32.0 g) is 27.2 g.

The values are drawn from patent publication US8252807B2, “Methods of inhibiting the interaction between S100 and the receptor for advanced glycation end-products” (Board of Regents, The University of Texas System, priority 2007, dated 2012).
